From ChEMBL document CHEMBL1133187, “Novel antiarthritic agents with 1,2-isothiazolidine-1,1-dioxide (gamma-sultam) skeleton: cytokine suppressive dual inhibitors of cyclooxygenase-2 and 5-lipoxygenase” (J Med Chem, 2000)

What was measured:
Cyclooxygenase = biological target: T1, Cyclooxygenase (Rattus norvegicus, UniProt P35355+Q63921)
T1 sequence (P35355 whole entry): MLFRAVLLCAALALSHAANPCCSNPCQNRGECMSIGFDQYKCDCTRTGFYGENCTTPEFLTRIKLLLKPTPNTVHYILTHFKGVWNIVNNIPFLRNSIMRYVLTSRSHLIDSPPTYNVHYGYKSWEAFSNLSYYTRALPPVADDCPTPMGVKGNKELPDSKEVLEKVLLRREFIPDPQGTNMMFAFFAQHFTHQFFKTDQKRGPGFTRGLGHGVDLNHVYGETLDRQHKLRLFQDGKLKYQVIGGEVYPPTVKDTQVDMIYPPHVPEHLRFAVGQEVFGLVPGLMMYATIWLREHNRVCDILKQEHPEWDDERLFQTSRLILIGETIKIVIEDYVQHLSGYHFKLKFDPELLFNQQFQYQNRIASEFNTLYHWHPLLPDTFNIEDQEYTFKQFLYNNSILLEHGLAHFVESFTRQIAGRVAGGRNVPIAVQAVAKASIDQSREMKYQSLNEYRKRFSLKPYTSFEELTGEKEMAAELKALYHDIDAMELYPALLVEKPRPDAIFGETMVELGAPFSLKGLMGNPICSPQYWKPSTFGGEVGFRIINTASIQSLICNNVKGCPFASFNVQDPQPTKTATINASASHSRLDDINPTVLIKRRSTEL
T1 sequence (Q63921 whole entry): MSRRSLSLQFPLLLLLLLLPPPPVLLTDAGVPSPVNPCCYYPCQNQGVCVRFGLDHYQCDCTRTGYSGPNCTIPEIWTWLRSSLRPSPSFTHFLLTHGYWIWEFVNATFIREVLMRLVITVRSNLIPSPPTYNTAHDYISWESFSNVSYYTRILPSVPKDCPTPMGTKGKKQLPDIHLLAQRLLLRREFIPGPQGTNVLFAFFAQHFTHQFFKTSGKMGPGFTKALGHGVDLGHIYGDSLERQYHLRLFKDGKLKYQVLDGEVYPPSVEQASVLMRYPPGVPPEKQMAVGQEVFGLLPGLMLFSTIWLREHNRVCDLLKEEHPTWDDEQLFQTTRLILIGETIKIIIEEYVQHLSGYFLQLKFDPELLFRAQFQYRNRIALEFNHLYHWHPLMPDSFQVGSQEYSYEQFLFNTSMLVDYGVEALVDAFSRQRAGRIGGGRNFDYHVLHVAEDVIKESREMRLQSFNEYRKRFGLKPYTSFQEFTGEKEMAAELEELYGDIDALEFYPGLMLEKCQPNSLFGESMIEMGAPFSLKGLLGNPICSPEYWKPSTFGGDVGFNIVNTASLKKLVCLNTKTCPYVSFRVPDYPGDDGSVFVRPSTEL
Description: In vitro inhibitory effect on production of prostaglandin E2 (PGE2) in rat synovial cells.

Rattus norvegicus [1] = assay: Dose required for 30% inhibition of carrageenan-induced edema; assay type: functional
THP-1 [2] = assay: In vitro effect on production of lipopolysaccharide (LPS) -induced IL1-beta in human THP-1 cells; assay type: functional, cell-based
Rattus norvegicus [3] = assay: Percent inhibition of carrageenan-induced foot-pad edema at 30 mg/kg po; assay type: functional
Rattus norvegicus [4] = organism: Rattus norvegicus; assay: Dose required for 30% inhibition of adjuvant-induced arthritis; assay type: functional
Rattus norvegicus [5] = organism: Rattus norvegicus; assay: In vitro effect on production of calcium ionophore (A23187) -induced Leukotriene B4 (LTB4) in rat peritoneal cells; assay type: functional, cell-based
Rattus norvegicus [6] = assay: Percent inhibition of adjuvant-induced arthritis at 10 mg/kg po; assay type: functional
Rattus norvegicus [7] = organism: Rattus norvegicus; assay: In vitro inhibitory effect on production of, calcium ionophore (A23187) -induced Leukotriene B4 (LTB4) in rat peritoneal cells; assay type: functional, cell-based
Rattus norvegicus [8] = organism: Rattus norvegicus; assay: In vitro inhibitory effect on production of, Prostaglandin E2 (PGE2) in rat synovial cells; assay type: functional
THP-1 [9] = assay: In vitro inhibitory effect on production of, lipopolysaccharide (LPS) -induced IL1-beta in human THP-1 cells; assay type: functional, cell-based
Rattus norvegicus [10] = organism: Rattus norvegicus
Description: Lengths of bleeding ulcer of drug-administered group

[11] = (§1) Inhibitory effect on production of cyclooxygenase-2 (COX-2) prostaglandin E2 (PGE2) in human IL1-beta stimulated synovial cells; assay type: functional
Rattus norvegicus [12] = organism: Rattus norvegicus; assay: Inhibitory effect for increase in plasma prostaglandin E2 (PGE2) level after arachidonic acid (AA) injection into COX-1 non-lipopolysaccharide-treated rats; assay type: functional, organism-based
Rattus norvegicus [13] = organism: Rattus norvegicus; assay: Dose required for Ulcerogenic effect; assay type: functional
Homo sapiens [14] = organism: Homo sapiens; assay: Inhibitory effect on production of (COX-1) thromboxane B2 (TXB2) in human platelet cells; assay type: functional, cell-based
Rattus norvegicus [15] = organism: Rattus norvegicus; assay: (§2) Inhibitory effect for increase in plasma prostaglandin E2 (PGE2) level after arachidonic acid (AA) injection into COX-2 lipopolysaccharide-treated rats; assay type: functional, organism-based
Rattus norvegicus [16] = organism: Rattus norvegicus; assay: as §2; assay type: functional
[17] = Inhibitory effect on production of (COX-2) prostaglandin E2 (PGE2) in human IL1-beta stimulated synovial cells; assay type: functional
Rattus norvegicus [18] = organism: Rattus norvegicus; assay: Inhibitory effect for increase in plasma prostaglandin E2 (PGE2) level after arachidonic acid (AA) injection into, COX-1 non-lipopolysaccharide-treated rats; assay type: functional
Homo sapiens [19] = organism: Homo sapiens; assay: Inhibitory effect on production of cyclooxygenase-1 (COX-1) thromboxane B2 (TXB2) in human platelet cells
[20] = as §1
Rattus norvegicus [21] = organism: Rattus norvegicus; assay: In vitro inhibitory effect on production of Prostaglandin E2 (PGE2) in rat synovial cells; assay type: functional
THP-1 [22] = assay: In vitro inhibitory effect on production of lipopolysaccharide (LPS)-induced IL1-beta in human THP-1 cells; assay type: functional, cell-based
Rattus norvegicus [23] = organism: Rattus norvegicus; assay: In vitro inhibitory effect on production of calcium ionophore (A23187)-induced Leukotriene B4 (LTB4) in rat peritoneal cells; assay type: functional, cell-based

Compound	IC50 (Cyclooxygenase)	IC50 (THP-1 [2])	inhibition in vivo at 30 mg/kg (Rattus norvegicus [3])	IC50 (Rattus norvegicus [5])	further results
CC(C)CN1CC/C(=C\c2cc(C(C)(C)C)c(O)c(C(C)(C)C)c2)S1(=O)=O	0.41 µM	–	–	–	–
CN1OCC/C(=C\c2cc(C(C)(C)C)c(O)c(C(C)(C)C)c2)S1(=O)=O	0.2 µM	–	–	–	–
CON1CC/C(=C\c2cc(C(C)(C)C)c(O)c(C(C)(C)C)c2)S1(=O)=O	< 0.001 µM	> 100 µM	26.5%	3 µM	ED30 (Rattus norvegicus [1]): 34.7 mg/kg; ED30 (Rattus norvegicus [4]): 2.4 mg/kg; inhibition in vivo at 10 mg/kg (Rattus norvegicus [6]): 35.2%
CN(C)CCN1CC/C(=C\c2cc(C(C)(C)C)c(O)c(C(C)(C)C)c2)S1(=O)=O	0.34 µM	–	–	–	–
CCN1CC/C(=C\c2ccc(O)c(OC)c2)S1(=O)=O	–	–	–	–	IC50 (Rattus norvegicus [7]): > 100 µM; IC50 (Rattus norvegicus [8]): > 1 µM; IC50 (THP-1 [9]): > 100 µM
CCN1CC/C(=C\c2cc(C(C)(C)C)c(O)c(C(C)(C)C)c2)S1(=O)=O	0.0095 µM	10 µM	49.4%	2.5 µM	Ulcer index (Rattus norvegicus [10]): 1.6 mm; IC50 [11]: 0.011 µM; ED30 (Rattus norvegicus [1]): 3.5 mg/kg; ED50 (Rattus norvegicus [12]): > 30 mg/kg; Dose (Rattus norvegicus [13]): 400 mg/kg; ED30 (Rattus norvegicus [4]): 0.76 mg/kg; IC50 (Homo sapiens [14]): 27 µM; inhibition in vivo at 10 mg/kg (Rattus norvegicus [6]): 37.8%; ED50 (Rattus norvegicus [15]): 3.19 mg/kg
CON1CC/C(=C/c2cc(C(C)(C)C)c(O)c(C(C)(C)C)c2)S1(=O)=O	0.0025 µM	20 µM	6%	1.5 µM	inhibition in vivo at 10 mg/kg (Rattus norvegicus [6]): 5%
CC(C)(C)c1cc(/C=C2/CCNS2(=O)=O)cc(C(C)(C)C)c1O	< 0.001 µM	27 µM	10.8%	1.8 µM	–
CS(=O)(=O)Nc1ccc([N+](=O)[O-])cc1OC1CCCCC1 [NS-398]	–	–	–	–	ED50 (Rattus norvegicus [16]): 1 mg/kg; IC50 (Homo sapiens [14]): 6.8 µM; IC50 [17]: 0.0019 µM; ED50 (Rattus norvegicus [18]): > 30 mg/kg
CC(C)(C)c1cc(/C=C2\CCN(C3CC3)S2(=O)=O)cc(C(C)(C)C)c1O	0.0025 µM	9 µM	21.4%	3.2 µM	Ulcer index (Rattus norvegicus [10]): 0.7 mm; ED30 (Rattus norvegicus [1]): 11.9 mg/kg; Dose (Rattus norvegicus [13]): 400 mg/kg; ED30 (Rattus norvegicus [4]): 1.7 mg/kg; inhibition in vivo at 10 mg/kg (Rattus norvegicus [6]): 32.9%
CC(C)(C)c1cc(/C=C2\CCN(O)S2(=O)=O)cc(C(C)(C)C)c1O	0.01 µM	90 µM	15.8%	9.5 µM	inhibition in vivo at 10 mg/kg (Rattus norvegicus [6]): 3.6%
CC(C)(C)c1cc(/C=C2\CCCNS2(=O)=O)cc(C(C)(C)C)c1O	0.0062 µM	56 µM	14.7%	74 µM	–
Cc1ccc(-c2cc(C(F)(F)F)nn2-c2ccc(S(N)(=O)=O)cc2)cc1 [CELECOXIB]	–	–	–	–	IC50 (Homo sapiens [19]): 19 µM; IC50 [20]: 0.0079 µM
CCN1CC/C(=C\c2cc(C(C)C)c(O)c(C(C)C)c2)S1(=O)=O	–	–	–	–	IC50 (Rattus norvegicus [21]): > 1 µM; IC50 (THP-1 [22]): > 100 µM; IC50 (Rattus norvegicus [23]): > 100 µM
CCN1CC/C(=C\c2ccc(O)cc2)S1(=O)=O	–	–	–	–	IC50 (Rattus norvegicus [7]): > 100 µM; IC50 (Rattus norvegicus [8]): > 1 µM; IC50 (THP-1 [9]): > 100 µM
CN1CC/C(=C/c2cc(C(C)(C)C)c(O)c(C(C)(C)C)c2)S1(=O)=O	< 0.001 µM	29 µM	25.2%	1.8 µM	–
CC(C)(C)c1cc(/C=C2/CCN(c3ccc(Cl)cc3)S2(=O)=O)cc(C(C)(C)C)c1O	< 0.001 µM	–	–	–	–
CC(C)(C)c1cc(/C=C2\CCN(CC(=O)O)S2(=O)=O)cc(C(C)(C)C)c1O	3.4 µM	–	–	–	–
